From patent publication US10076540B1, “Medication enhancement using hydrogen” (Perricone Hydrogen Water Company, LLC, priority 2017, dated 2018)

Assay: Time until the effects of THC are felt after ingestion of a hydrogen-containing composition (uptake rate)
Type: in vivo
Details: human subject; drunk composition of liquid such as water, dissolved hydrogen and THC
From the text: In some embodiments, the composition comprising hydrogen and an active pharmaceutical agent may have an uptake rate that is at least 2, at least 3, at least 5, at least 10, at least 20, at least 30, or at least 50 times the uptake rate of the active pharmaceutical agent alone by a subject. In certain embodiments, composition comprising hydrogen and an active pharmaceutical agent may have an uptake rate that is less than or equal to 100, less than or equal to 50, less than or equal to 30, less than or equal to 20, less than or equal to 10, less than or equal to 5, or less than or equal to 3 times the uptake rate of the active pharmaceutical agent alone by the subject. Combinations of the above-referenced ranges are also possible (e.g., at least 2 or less than or equal to 100 times). Other ranges are also possible. The uptake rate of a composition (or active pharmaceutical agent) may be determined by administering the composition (or active pharmaceutical agent) to a subject and determining the amount of time required to observe a pharmacological effect (e.g., a psychotropic effect, a reduction in disease and/or clinical symptom) of the active pharmaceutical agent on the subject.
A composition such as described herein is provided to a subject, such as a human subject. […]

## CCCCCc1cc(O)c2c(c1)OC(C)(C)[C@@H]1CCC(C)=C[C@@H]21 [THC, tetrahydrocannabinol]
  time after ingestion until the effects of the THC are felt by the subject: less than 5 minutes
